From patent US10894787B2, “Modulators of the GPR119 receptor and the treatment of disorders related thereto” (Arena Pharmaceuticals, Inc., priority 2010, dated 2021)

Legend:
[1] = tested on: male diabetic ZDF rats; experiment: Oral glucose tolerance test (oGTT) in male diabetic ZDF rats; assay type: in vivo, rat; conditions: for Plasma Glucose Mean: N = 6; for % Inhibition of Glucose Excursion: AUC reduction relative to vehicle control, ZDF rats
Experimental: Male ZDF rats were fasted for 18 h and randomly grouped (n=6) to receive a GPR119 agonist, (Compound 1), at 0.3, 3, 10, or 30 mg/kg (mg compound per kg body weight). The compound was delivered orally via a gavage needle (p.o., volume 4 mL/kg) 60 min prior to glucose bolus (3 g/kg) (time=−60 min in FIG. 1), with a separate group receiving vehicle (20% hydroxypropyl-beta-cyclodextrin) as control. At time 0 min the glucose bolus was administered. Levels of blood glucose were assessed using a glucometer (One-Touch Ultra™ LifeScan) at time −60 minute (prior to compound administration), at 0 min (at time when glucose bolus was given), and at 30, 60, 90, and 120 min post glucose bolus. Glucose excursion (AUC (area under the curve) reduction) in compound treated animals relative to vehicle control is shown in FIG. 2 and Table 2.

[2] = tested on: male 129SVE mice; experiment: Oral glucose tolerance test (oGTT) in male 129SVE mice; assay type: in vivo, mouse; conditions: for Plasma Glucose Mean: N = 6; for % Inhibition of Glucose Excursion: AUC reduction relative to vehicle control
Experimental: Male 129SVE mice (approximately 8-week old) were fasted for 18 h and randomly grouped (n=6) to receive a GPR119 agonist, (Compound 1), at 0.3, 3, or 30 mg/kg (mg/kg body weight). The compound was delivered orally via a gavage needle (p.o., volume 4 mL/kg) 30 min prior to glucose bolus (3 g/kg) (time=−30 min in FIG. 3), with a separate group receiving vehicle (20% hydroxypropyl-beta-cyclodextrin) as control. At time 0 min. the glucose bolus was administered. Levels of blood glucose were assessed using a glucometer (One-Touch Ultra™, LifeScan) at time −30 minute (prior to compound administration), at 0 min (at time when glucose bolus was given), and at 20, 40, 60, 120 min post glucose bolus. Glucose excursion (AUC (area under the curve) reduction) in compound treated animals relative to vehicle control is given in FIG. 4, and in Table 4.

[3] = molecular target: T1, GPR119 receptor (Homo sapiens, UniProt Q8TDV5); experiment: HTRF assay for direct cAMP measurement in CHO-K1 cells stably expressing the GPR119 receptor; assay type: cell-based; conditions: CHO-K1 cells stably expressing GPR119; 1 h incubation at room temperature; read-out: EC50, HTRF cAMP assay
T1 construct: expressed in transfected cells
T1 sequence (Q8TDV5 2-335 limits assumed): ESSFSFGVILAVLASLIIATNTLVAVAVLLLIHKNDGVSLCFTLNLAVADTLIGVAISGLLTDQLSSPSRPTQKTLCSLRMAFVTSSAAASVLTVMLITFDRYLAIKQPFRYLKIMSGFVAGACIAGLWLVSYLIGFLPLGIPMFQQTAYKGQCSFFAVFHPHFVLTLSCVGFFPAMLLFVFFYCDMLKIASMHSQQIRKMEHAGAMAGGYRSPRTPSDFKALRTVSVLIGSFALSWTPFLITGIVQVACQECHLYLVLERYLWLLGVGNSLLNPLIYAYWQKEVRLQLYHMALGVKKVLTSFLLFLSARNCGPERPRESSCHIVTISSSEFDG
Experimental: The GPR119 agonist, Compound 1, was evaluated in an HTRF® cAMP detection assay according to the manufacturer's instructions (Cisbio, cAMP Dynamic 2 Assay Kit; #62AM4PEJ) using CHO-K1 cells stably expressing the GPR119 receptor. Briefly, CHO-K1 cells were transduced with a lentiviral vector encoding the nucleotide sequence of GPR119 (NCBI mRNA and protein reference sequences: NM_178471.2 & NP_848566, (GPR119 has also been referred to as Glucose-Dependent Insulinotropic Receptor (GDIR)). The N-terminus of the GPR119 nucleotide sequence was modified to replace the first, methionine-coding codon with a nucleotide sequence coding for a standard, nine amino acid, hemagglutinin tag. Following transduction, cells expressing the GPR119 receptor were isolated and a single clone was isolated following standard dilution-cloning procedures. On the day of the assay, cultured CHO-GPR119 cells were harvested, suspended in assay buffer and plated into 384-well assay plates (PerkinElmer Proxiplate #6008280) at a density of 2,000 cells per well. A cAMP standard curve was included on each plate. Test compounds were solubilized in DMSO, serially diluted in DMSO and then diluted in assay buffer before adding to the cells. Test compounds were evaluated in triplicate, using 10-point, 5-fold serial dilutions starting at 10 μM. The final DMSO concentration in the assay was 0.5%. Compounds and cells were incubated for 1 h at room temperature and then detection reagents were added to each well (cAMP-D2 in cell lysis buffer, followed by europium cryptate-labeled anti-cAMP antibody). Plates were then incubated at room temperature for 1 h prior to reading. Time-resolved fluorescence measurements were collected on PerkinElmer Envision™ or BMG Pherastar™ microplate readers. The compound N-(2-fluoro-4-(methylsulfonyl)phenyl)-6-(4-(3-isopropyl-1,2,4-oxadiazol-5-yl)piperidin-1-yl)-5-nitropyrimidin-4-amine was used as a positive control in each runset while assay buffer containing 0.5% DMSO was used as the negative control.

[4] = 0.3 mg/kg p.o., 60 min post glucose bolus
[5] = 0.3 mg/kg p.o., 120 min post glucose bolus
[6] = 3.0 mg/kg p.o., 60 min post glucose bolus
[7] = 3.0 mg/kg p.o., 120 min post glucose bolus
[8] = 30.0 mg/kg p.o., 60 min post glucose bolus
[9] = 30.0 mg/kg p.o., 120 min post glucose bolus

With `CN(C)C(=O)c1ccc(Nc2ncnc(N3CCC(c4nc(C(C)(C)F)no4)CC3)c2F)c(F)c1` [Compound 1, 3-fluoro-4-(5-fluoro-6-(4-(3-(2-fluoropropan-2-yl)-1,2,4-oxadiazol-5-yl)piperidin-1-yl)pyrimidin-4-ylamino)-N,N-dimethylbenzamide] the “Plasma Glucose Mean” value ([1]; 0.3 mg/kg p.o. 60 min prior to glucose bolus, time 0 min) was 89.7 mg/dL, the “Plasma Glucose Mean” value ([1]; 0.3 mg/kg p.o., 30 min post glucose bolus) was 201.7 mg/dL and the “Plasma Glucose Mean” value [1, 4] was 192.2 mg/dL. For the same compound, the “Plasma Glucose Mean” value ([1]; 0.3 mg/kg p.o., 90 min post glucose bolus) was 185.3 mg/dL, the “Plasma Glucose Mean” value [1, 5] was 154.8 mg/dL and the “% Inhibition of Glucose Excursion” value ([1]; 0.3 mg/kg p.o.) was 6.5%. For the same compound, the “Plasma Glucose Mean” value ([1]; 0.3 mg/kg p.o., time -60 min (prior to compound administration)) was 106.3 mg/dL, the “Plasma Glucose Mean” value ([1]; 3.0 mg/kg p.o. 60 min prior to glucose bolus, time 0 min) was 82.7 mg/dL and the “Plasma Glucose Mean” value ([1]; 3.0 mg/kg p.o., 30 min post glucose bolus) was 184.5 mg/dL. For the same compound, the “Plasma Glucose Mean” value [1, 6] was 144.2 mg/dL, the “Plasma Glucose Mean” value ([1]; 3.0 mg/kg p.o., 90 min post glucose bolus) was 151.2 mg/dL and the “Plasma Glucose Mean” value [1, 7] was 146.2 mg/dL. The “% Inhibition of Glucose Excursion” value ([1]; 3 mg/kg p.o.) was 47.0%, the “Plasma Glucose Mean” value ([1]; 3.0 mg/kg p.o., time -60 min (prior to compound administration)) was 110.0 mg/dL and the “Plasma Glucose Mean” value ([1]; 10.0 mg/kg p.o. 60 min prior to glucose bolus, time 0 min) was 76.0 mg/dL. For the same compound, the “Plasma Glucose Mean” value ([1]; 10.0 mg/kg p.o., 30 min post glucose bolus) was 174.0 mg/dL, the “Plasma Glucose Mean” value ([1]; 10.0 mg/kg p.o., 60 min post glucose bolus) was 135.8 mg/dL and the “Plasma Glucose Mean” value ([1]; 10.0 mg/kg p.o., 90 min post glucose bolus) was 141.3 mg/dL. The “Plasma Glucose Mean” value ([1]; 10.0 mg/kg p.o., 120 min post glucose bolus) was 132.5 mg/dL, the “% Inhibition of Glucose Excursion” value ([1]; 10 mg/kg p.o.) was 60.1% and the “Plasma Glucose Mean” value ([1]; 10.0 mg/kg p.o., time -60 min (prior to compound administration)) was 108.7 mg/dL. The “Plasma Glucose Mean” value ([1]; 30.0 mg/kg p.o. 60 min prior to glucose bolus, time 0 min) was 93.0 mg/dL, the “Plasma Glucose Mean” value ([1]; 30.0 mg/kg p.o., 30 min post glucose bolus) was 197.0 mg/dL and the “Plasma Glucose Mean” value [1, 8] was 124.8 mg/dL. For the same compound, the “Plasma Glucose Mean” value ([1]; 30.0 mg/kg p.o., 90 min post glucose bolus) was 135.8 mg/dL, the “Plasma Glucose Mean” value [1, 9] was 130.2 mg/dL and the “% Inhibition of Glucose Excursion” value ([1]; 30 mg/kg p.o.) was 52.1%. The “Plasma Glucose Mean” value ([1]; 30.0 mg/kg p.o., time -60 min (prior to compound administration)) was 104.8 mg/dL, the “Effect on blood glucose after a challenge with glucose” value ([1]; diabetic ZDF rats, 0.3-30 mg/kg p.o.) was “lowered blood glucose” and the “Plasma Glucose Mean” value ([2]; 0.3 mg/kg p.o. 30 min prior to glucose bolus, time 0 min) was 74.2 mg/dL. For the same compound, the “Plasma Glucose Mean” value ([2]; 0.3 mg/kg p.o., 20 min post glucose bolus) was 221.3 mg/dL, the “Plasma Glucose Mean” value ([2]; 0.3 mg/kg p.o., 40 min post glucose bolus) was 274.8 mg/dL and the “Plasma Glucose Mean” value [2, 4] was 258.2 mg/dL. For the same compound, the “Plasma Glucose Mean” value [2, 5] was 154.5 mg/dL, the “% Inhibition of Glucose Excursion” value ([2]; 0.3 mg/kg p.o., 129SVE mice) was 16.9% and the “Plasma Glucose Mean” value ([2]; 0.3 mg/kg p.o., time -30 min (prior to compound administration)) was 58.5 mg/dL. The “Plasma Glucose Mean” value ([2]; 3.0 mg/kg p.o. 30 min prior to glucose bolus, time 0 min) was 75.2 mg/dL, the “Plasma Glucose Mean” value ([2]; 3.0 mg/kg p.o., 20 min post glucose bolus) was 206.7 mg/dL and the “Plasma Glucose Mean” value ([2]; 3.0 mg/kg p.o., 40 min post glucose bolus) was 233.0 mg/dL. For the same compound, the “Plasma Glucose Mean” value [2, 6] was 213.5 mg/dL, the “Plasma Glucose Mean” value [2, 7] was 138.2 mg/dL and the “% Inhibition of Glucose Excursion” value ([2]; 3 mg/kg p.o., 129SVE mice) was 34.8%. For the same compound, the “Plasma Glucose Mean” value ([2]; 3.0 mg/kg p.o., time -30 min (prior to compound administration)) was 63.5 mg/dL, the “Plasma Glucose Mean” value ([2]; 30.0 mg/kg p.o. 30 min prior to glucose bolus, time 0 min) was 78.7 mg/dL and the “Plasma Glucose Mean” value ([2]; 30.0 mg/kg p.o., 20 min post glucose bolus) was 185.8 mg/dL. The “Plasma Glucose Mean” value ([2]; 30.0 mg/kg p.o., 40 min post glucose bolus) was 216.0 mg/dL, the “Plasma Glucose Mean” value [2, 8] was 191.7 mg/dL and the “Plasma Glucose Mean” value [2, 9] was 138.7 mg/dL. The “% Inhibition of Glucose Excursion” value ([2]; 30 mg/kg p.o., 129SVE mice) was 42.1%, the “Plasma Glucose Mean” value ([2]; 30.0 mg/kg p.o., time -30 min (prior to compound administration)) was 64.5 mg/dL and the “Effect on blood glucose after a challenge with glucose” value ([2]; 129SVE mice, 0.3-30 mg/kg p.o.) was “lowered blood glucose”. For the same compound, the EC50 [3] was 23.4 nM.
